pIC50: −log10 of the molar value. “Also recorded” adds a separate entry of the source.
Experiments:
[1] = tested on: intact human platelets; assay: Lactate production and pH of intact human platelets; type: cell-based; settings: metformin 1 and 10 mM, phenformin 0.5 mM, rotenone 2 μM
Protocol: (§1) Lactate levels are determined every 2 h using the Lactate Pro™ 2 blood lactate test meter (Arkray, Alere AB, Lidingö, Sweden) or similar types of measurements. Incubation is performed at 37° C. pH is measured at start, after 4 and after 8 h (or more frequently) of incubation using a Standard pH Meter, e.g. PHM210 (Radiometer, Copenhagen, Denmark). Drug candidates are added to the assay from start or following 30-60 min at concentrations within the range 10 μM-5 mM. […] In order to evaluate the specificity of the drug candidate, it is also tested in combination with a down-stream inhibitor of respiration such as the complex III inhibitor Antimycin at 1 μg/mL, which should abolish the effect of the drug candidate and restore the production of lactate. The use of antimycin is therefore also a control for undue effects of drug candidates on the lactate producing ability of the cells used in the assay.
Incubation was performed at 37° C. at a stirrer speed of 750 rpm, and pH was measured at start, after 4 and after 8 h of incubation (n=4) using a PHM210 Standard pH Meter (Radiometer, Copenhagen, Denmark).

[2] = tested on: permeabilized human platelets
Protocol: (§2) Lactate production of intact human platelets was determined in PBS containing 10 mM glucose.
Subsequently the FADH2-linked substrate succinate (10 mM) was given to determine convergent complex I- and II-dependent OXPHOS capacity (OXPHOSCI+II). […] Finally, the artificial complex IV substrate N,N,N′,N′-tetramethyl-p-phenylenediamine dihydrochloride (TMPD, 0.5 mM) was added and the complex IV inhibitor sodium azide (10 mM) was given to measure complex IV activity and chemical background, respectively.

[3] = tested on: intact human platelets; assay: Intervention on rotenone- or metformin-induced lactate production with cell-permeable succinate prodrugs; type: cell-based; settings: for effect on metformin-induced lactate production: 10 mM metformin, consecutive additions of 250 μM each 30 minutes; for effect on rotenone-induced lactate production: rotenone 2 μM, repeated additions of 250 μM each 30 minutes
Protocol: as §1
Lactate levels were measured in intervals of 30 min with the onset of the experiment.

[4] = tested on: intact human platelets; assay: Mitochondrial respiration in intact human platelets (respirometry); type: cell-based; settings: for routine respiration change after 60 min: compared to first measurement after addition
Protocol: as §2
Routine respiration was followed for 60 min at 37° C. before the ATP-synthase inhibitor oligomycin (1 μg mL^−1) was added to assess LEAK respiration. Maximal uncoupled respiratory electron transport system capacity supported by endogenous substrates (ETS) was reached by titration of FCCP.

[5] = tested on: permeabilized human peripheral blood mononuclear cells; assay: Mitochondrial respiration in permeabilized human PBMCs (respirometry); type: cell-based; settings: PBMC, read-out: IC50 (OXPHOSCI respiration)
Protocol: Real-time respirometric measurements were performed using high-resolution oxygraphs (Oxygraph-2k, Oroboros Instruments, Innsbruck, Austria). The experimental conditions during the measurements were the following: 37° C., 2 mL active chamber volume and 750 rpm stirrer speed. […] Settings, daily calibration and instrumental background corrections were conducted according to the manufacturer's instructions. […] All measurements were performed at a platelet concentration of 200×10^6 cells per mL or a PBMC concentration of 5×10^6 cells per mL. […] Maximal uncoupled respiratory electron transport system capacity supported by convergent input through complex I and […] ) was evaluated by subsequent titration with the protonophore carbonyl-cyanide p-(trifluoromethoxy) phenylhydrazone (FCCP). […] The complex III inhibitor antimycin (1 μg mL^-1) was then given to reveal residual oxygen consumption (ROX). […] Complex IV activity was calculated by subtracting the sodium azide value from the TMPD value. With exception of complex IV activity, all respiratory states were measured at steady-state and corrected for ROX. Complex IV activity was measured after ROX determination and not at steady-state.

[6] = tested on: intact PBMCs; assay: Lactate release of intact PBMCs; type: cell-based, human; settings: 10 mM metformin, data not shown
[7] = tested on: Intact human blood cells with inhibited complex I; assay: Screening assay 4: enhancement of mitochondrial energy producing function in cells with inhibited respiratory complex I in human plasma; type: cell-based; set-up: key: The response in each parameter is graded either +, ++ or +++ in increasing order of potency; The response in each parameter is graded either +, ++ or +++ in increasing order of potency; The response in each parameter is graded either +, ++ or +++ in increasing order of potency; (+): Brackets [( )] indicate an intermediate effect, i.e. (+++) is between ++ and +++; settings: increase in mitochondrial oxygen consumption
Protocol: (§3) Measurement of mitochondrial respiration is performed in a high-resolution oxygraph (Oxygraph—2k, Oroboros Instruments, Innsbruck, Austria) at a constant temperature of 37° C. Isolated human platelets, white blood cells, fibroblasts, human heart muscle fibers or other cell types containing live mitochondria are suspended in a 2 mL glass chamber at a concentration sufficient to yield oxygen consumption in the medium of ≧10 pmol O2 s^−1 mL^−1.
Intact human blood cells are incubated in plasma from the same donor. […] Compounds dissolved in DMSO are titrated in a range of 10 μM to 10 mM final concentration. The experiment is terminated by addition of Antimycin at final concentration 1 μg/mL and any residual non-mitochondrial oxygen consumption is measured.

[8] = tested on: intact cells; assay: Screening assay 2: enhancement and inhibition of mitochondrial energy producing function in intact cells (FCCP uncoupled); type: cell-based, human; set-up: key to Convergent (FCCP): The response in each parameter is graded either +, ++ or +++ in increasing order of potency; The response in each parameter is graded either +, ++ or +++ in increasing order of potency; The response in each parameter is graded either +, ++ or +++ in increasing order of potency; (+): Brackets [( )] indicate an intermediate effect, i.e. (+++) is between ++ and +++; settings: for Convergent (FCCP): increase in mitochondrial oxygen consumption, screening assay 2, uncoupled conditions; for Toxicity: lowest concentration during compound titration at which a decrease in oxygen consumption is seen, screening assay 2
Protocol: as §3
In the second protocol the same buffer is used as described above. After basal respiration is established, the mitochondrial uncoupler FCCP is added at a concentration of 2 nM to increase metabolic demand.

[9] = tested on: intact cells; assay: Screening assay 3: assay to assess uncoupling in intact cells (high-resolution respirometry); type: cell-based, human; set-up: key: The response in each parameter is graded either +, ++ or +++ in increasing order of potency; The response in each parameter is graded either +, ++ or +++ in increasing order of potency; The response in each parameter is graded either +, ++ or +++ in increasing order of potency; (+): Brackets [( )] indicate an intermediate effect, i.e. (+++) is between ++ and +++; settings: for Convergent (Routine): increase in mitochondrial oxygen consumption induced by the compound, screening assay 3, 1 mM compound; for Uncoupling: level of oxygen consumption after addition of oligomycin, screening assay 3
Protocol: In the third protocol, the same buffer as described above is used. […] Subsequently, the ATP-synthase-inhibitor Oligomycin is added. A reduction in respiration is a measure of how much of the oxygen consumption that is coupled to ATP synthesis. No, or only a slight, reduction indicate that the compound is inducing a proton leak over the inner mitochondrial membrane. The uncoupler FCCP is then titrated to induce maximum uncoupled respiration. […] The experiment is terminated by the addition of 1 μg/mL of the complex III inhibitor Antimycin to measure non-mitochondrial oxygen consumption.

[10] = tested on: cells with inhibited respiratory complex I; assay: Screening assay 1: enhancement of mitochondrial energy producing function in cells with inhibited respiratory complex I; type: cell-based, human; set-up: key: The response in each parameter is graded either +, ++ or +++ in increasing order of potency; The response in each parameter is graded either +, ++ or +++ in increasing order of potency; The response in each parameter is graded either +, ++ or +++ in increasing order of potency; (+): Brackets [( )] indicate an intermediate effect, i.e. (+++) is between ++ and +++; settings: increase in mitochondrial oxygen consumption in cells with inhibited complex I
Protocol: as §3
Cells are placed in a buffer containing 110 mM sucrose, HEPES 20 mM, taurine 20 mM, K-lactobionate 60 mM, MgCl2 3 mM, KH2PO4 10 mM, EGTA 0.5 mM, BSA 1 g/l, pH 7.1. […] Compounds dissolved in DMSO are titrated in a range of 10 μM to 10 mM final concentration. Subsequently, cell membranes are permeabilised with digitonin (1 mg/1*10^6 plt) to allow entry of extracellularly released energy substrate or cell impermeable energy substrates. After stabilized respiration, Succinate 10 mM is added as a reference to enable respiration downstream of complex I. After the respiration stabilized the experiment is terminated by addition of Antimycin at final concentration 1 μg/mL and any residual non-mitochondrial oxygen consumption is measured. An increase in respiration rate in the described protocol is tightly coupled to ATP synthesis by oxidative phosphorylation unless cells are uncoupled (i.e. proton leak without production of ATP). […]

[11] = tested on: intact cells; assay: Assays exemplified for enhancement of mitochondrial energy producing function (not specified which); type: cell-based, human
Protocol: An increase in respiration rate in the described protocol is tightly coupled to ATP synthesis by oxidative phosphorylation unless cells are uncoupled (i.e. proton leak without production of ATP). Uncoupling is tested for by addition of the ATP synthase inhibitor oligomycin (1-2 μg mL^−1) in a protocol 3 where the extent of uncoupling corresponds to the respiratory rate following oligomycin addition. In the second protocol the same buffer is used as described above. […] In the third protocol, the same buffer as described above is used. […] Subsequently, the ATP-synthase-inhibitor Oligomycin is added. A reduction in respiration is a measure of how much of the oxygen consumption that is coupled to ATP synthesis. No, or only a slight, reduction indicate that the compound is inducing a proton leak over the inner mitochondrial membrane. The uncoupler FCCP is then titrated to induce maximum uncoupled respiration. […] The experiment is terminated by the addition of 1 μg/mL of the complex III inhibitor Antimycin to measure non-mitochondrial oxygen consumption. Intact human blood cells are incubated in plasma from the same donor. […] The experiment is terminated by addition of Antimycin at final concentration 1 μg/mL and any residual non-mitochondrial oxygen consumption is measured.

[12] = 10 mM metformin plus prodrug, 250 μM each 30 minutes

## [H]/N=C(/N)N/C(=N/[H])NCCc1ccccc1 [phenformin]
[1]
  lactate production over 8 h compared to control: significantly more lactate
[2]; compared to controls
  ETSCII capacity and complex IV activity: not ETSCII or respiration specific to complex IV
[2]; phenformin versus metformin
  fold more potent inhibition of OXPHOSCI than metformin: 20 fold
[2]; read-out: IC50 (OXPHOSCI respiration), complex I substrates
  pIC50: 4.24

## CC(=O)OC(C)OC(=O)CCC(=O)OC(C)OC(C)=O (stereo not shown) [NV189]
[3]; [12]
  rate of lactate production: 0.55 mmol lactate (200·10^9 trc·h)^−1
[3]
  effect on metformin-induced lactate production: significantly decreased
  effect on rotenone-induced lactate production: attenuated; also recorded: brought back to normal
[3]; rotenone 2 μM plus antimycin 1 μg/mL plus prodrug
  rate of lactate production: 0.89 mmol lactate (200·10^6trc·h)^−1

## CN(C)C(=N)N=C(N)N [metformin]
[4]; 1 mM
  routine respiration change after 60 min: −17.27%
[4]; 1 mM, whole blood incubated over 18 h before platelet isolation
  routine respiration reduction after whole blood incubation: 30.49%
[4]; 10 mM
  routine respiration change after 60 min: −28.61%
[4]; 100 mM, 15 min of exposure
  routine respiration change after 15 min compared to control: −39.77%
[4]; 100 mM
  routine respiration change after 60 min: −81.78%
[5]
  pIC50: 3.35
[6]
  lactate release: increased lactate release

## CC(=O)OC(CCCN1C(=O)c2ccccc2C1=O)OC(=O)CCC(=O)O (stereo not shown) [01-150, 4-(1-acetoxy-4-(1,3-dioxoisoindolin-2-yl)butoxy)-4-oxobutanoic acid]
[7]
  CII (plasma): (+)
[8]
  Convergent (FCCP): +
  Toxicity: 2 mM
[9]
  Convergent (Routine): +++
  Uncoupling: (+)
[10]
  CII: ++

## COC(=O)CCC(=O)OC [dimethyl succinate]
[11]
  activity in the assays exemplified: inactive

## O=C(O)CCC(=O)O [succinate, reference compound]
[3]
  effect on metformin-induced lactate production: did not reduce the metformin-induced production of lactate; also recorded: did not change this

## CCOC(=O)CCC(=O)OCC [Diethyl succinate]
[11]
  activity in the assays exemplified: inactive

## CC(=O)OCOC(=O)CCC(=O)OCOC(C)=O [NV118]
[3]; [12]
  rate of lactate production: 0.43 mmol lactate (200·10^9 trc·h)^−1
[3]
  effect on metformin-induced lactate production: significantly decreased
  effect on rotenone-induced lactate production: attenuated

## CC(=O)OC(CCCOC(=O)CCC(=O)O)OC(=O)CCC(=O)O (stereo not shown) [01-134]
[7]
  CII (plasma): (+)
[8]
  Convergent (FCCP): (+)
  Toxicity: 10 mM
[9]
  Convergent (Routine): ++
  Uncoupling: (+)
[10]
  CII: (+)

## CC(=O)OCOC(=O)CCC(=O)OC(C)OC(C)=O (stereo not shown) [NV241]
[3]; [12]
  rate of lactate production: 0.43 mmol lactate (200·10^9 trc·h)^−1
[3]
  effect on metformin-induced lactate production: significantly decreased
  effect on rotenone-induced lactate production: attenuated

## COC(=O)CCC(=O)O [monomethyl succinate]
[11]
  activity in the assays exemplified: inactive

From patent US20170105960A1, “Prodrugs of Succinic Acid for Increasing ATP Production” (NEUROVIVE PHARMACEUTICAL AB, priority 2014, published 2017)
